Experimental data published in paper PMC7376644 (Pharmacology Research & Perspectives, 2020).
“And” between values parts separate entries of the source, which are not always exact repeats. Identical values can stand only once.

How the values were obtained:
CYP2D6 [1] = biological target: CYP2D6 (Homo sapiens, UniProt P10635); assay: Intrinsic clearance, substrate depletion approach; settings: rCYP2D6, substrate depletion
HLM = assay: Enzyme kinetics of hydroxylated metabolites formation; format: in vitro ADME, human
Procedure: The reactions were carried out in duplicate at each time point. Incubation conditions used for the determination of K M and V max were optimized for linearity with respect to time and protein concentrations. […] Metabolites were analyzed by LC‐MS/MS as described below. The K M and V max values of each marker substrate were determined using nonlinear least squares regression analysis in GraFit software (version 3.0, Erithacus Software Limited) and SigmaPlot Enzyme Kinetics Module for Windows 7.0 (SPSS, Inc). […]

CYP1A2 [2] = biological target: T1, CYP1A2 (Homo sapiens, UniProt P05177); assay: as above; format: in vitro ADME; set-up: purchased CYPEX CYP001; host or cells: Escherichia coli; settings: CYP1A2, formation of cis‐4‐OH‐PZQ
T1 sequence (P05177 1-516): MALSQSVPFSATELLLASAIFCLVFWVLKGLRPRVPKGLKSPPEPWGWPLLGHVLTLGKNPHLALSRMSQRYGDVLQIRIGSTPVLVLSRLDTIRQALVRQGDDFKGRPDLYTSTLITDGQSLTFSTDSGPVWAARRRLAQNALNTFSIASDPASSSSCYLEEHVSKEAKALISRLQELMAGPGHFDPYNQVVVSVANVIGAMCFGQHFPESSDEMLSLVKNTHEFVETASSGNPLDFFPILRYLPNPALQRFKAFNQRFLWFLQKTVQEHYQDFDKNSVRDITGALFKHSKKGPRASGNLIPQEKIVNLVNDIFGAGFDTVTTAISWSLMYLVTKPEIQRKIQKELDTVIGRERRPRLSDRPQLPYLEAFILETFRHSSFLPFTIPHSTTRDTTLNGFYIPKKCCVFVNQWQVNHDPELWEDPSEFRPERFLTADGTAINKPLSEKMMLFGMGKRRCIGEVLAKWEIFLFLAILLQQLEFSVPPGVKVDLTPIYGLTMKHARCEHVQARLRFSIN
Procedure: (§1) The reactions were carried out in duplicate at each time point. Incubation conditions used for the determination of K M and V max were optimized for linearity with respect to time and protein concentrations. […] Metabolites were analyzed by LC‐MS/MS as described below. The K M and V max values of each marker substrate were determined using nonlinear least squares regression analysis in GraFit software (version 3.0, Erithacus Software Limited) and SigmaPlot Enzyme Kinetics Module for Windows 7.0 (SPSS, Inc).
(§2) The well‐stirred model was used to estimate the hepatic clearance (CLH) due to metabolism.

CYP2C19 [3] = biological target: T2, CYP2C19 (Homo sapiens, UniProt P33261); assay: Qualitative substrate disappearance assay; format: in vitro ADME; set-up: purchased CYPEX CYP008; host or cells: Escherichia coli; settings: 20 pmols rCYP, 1.0 µmol/L substrate, 30 minutes
T2 sequence (P33261 whole entry): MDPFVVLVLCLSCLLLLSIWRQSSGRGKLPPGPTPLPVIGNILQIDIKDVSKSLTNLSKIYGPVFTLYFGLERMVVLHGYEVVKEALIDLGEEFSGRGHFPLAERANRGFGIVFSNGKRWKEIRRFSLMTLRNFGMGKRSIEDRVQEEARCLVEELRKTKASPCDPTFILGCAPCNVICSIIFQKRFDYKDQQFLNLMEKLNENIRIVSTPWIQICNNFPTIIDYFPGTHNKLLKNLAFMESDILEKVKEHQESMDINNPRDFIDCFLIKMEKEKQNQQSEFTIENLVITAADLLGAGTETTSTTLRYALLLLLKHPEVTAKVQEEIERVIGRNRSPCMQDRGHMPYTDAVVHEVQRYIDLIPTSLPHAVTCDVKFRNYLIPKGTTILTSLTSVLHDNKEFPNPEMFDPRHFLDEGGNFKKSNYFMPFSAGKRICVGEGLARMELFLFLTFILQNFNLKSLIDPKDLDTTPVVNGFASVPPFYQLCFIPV
Procedure: All reactions were performed in triplicate in 96‐well plates. […] The substrate was diluted to 40% ACN so that the percent organic component in the final solution was maintained at 1%. […] The reactions were initiated by addition of NADPH after a pre‐incubation of 5 minutes at 37°C. All reactions were terminated by the addition of 150 µL of ice‐cold ACN at either 0 minute (control) or 30 minutes (reaction). This was followed by centrifugation at 4500 g for 20 minutes. An aliquot (50 µL) supernatant was collected and 5 µL was injected and analyzed by liquid chromatography/tandem mass spectrometry (LC/MS/MS). Metabolism was signified qualitatively by loss of substrate from the media using the relationship: %remaining compound=[…]Peak area atT30min/Peak area atT0min×100.

CYP2D6 [4] = assay: CYP selective diagnostic inhibition studies in HLM, quinidine; format: in vitro ADME, human; settings: quinidine 10 µmol/L
Procedure: (§3) Reactions were carried out in triplicate in 96 well plates. Each reaction was measured at 2 time points, that is at 0 and 30 minutes. […] Furafylline, KTZ, ticlopidine, and quinidine were used as diagnostic inhibitors for CYP 1A2, 3A4/5, 2C19 and 2D6, respectively. The reactions were initiated by addition of NADPH after a pre‐incubation of 5 minutes at 37°C. All reactions were terminated by the addition of 150 µL ice‐cold ACN. Internal standard (0.2 µmol/L DPZ) was added to ACN prior to termination of the assay. This was followed by centrifugation at 4500 g for 20 minutes. An aliquot (50 µL) supernatant was collected and 5 µL was injected and analyzed by liquid chromatography/tandem mass spectrometry (LC/MS/MS). The percent effect of each inhibitor was the estimated contribution of the inhibited CYP calculated using the relationship below: %contribution=amount remaining with inhibitor‐amount remaining without inhibitor/amount remaining without inhibitor×100.

CYP1A2 [5] = biological target: T1, CYP1A2; assay: Intrinsic clearance, substrate depletion approach; settings: for Predicted CLH / Predicted CLuH,int: rCYP1A2, substrate depletion
[6] = cited from earlier work
CYP1A2 [7] = biological target: T1, CYP1A2; assay: in vitro; settings: recombinant CYP1A2, pH 7.4
CYP2C19 [8] = assay: CYP selective diagnostic inhibition studies in HLM, ticlopidine; format: in vitro ADME, human; settings: ticlopidine 10 µmol/L
Procedure: as §3

CYP2C19 [9] = biological target: T2, CYP2C19; assay: Intrinsic clearance, substrate depletion approach; settings: rCYP2C19, substrate depletion
CYP2C19 [10] = biological target: T2, CYP2C19; assay: in vitro; settings: recombinant CYP2C19, pH 7.4
CYP2C19 [11] = biological target: T2, CYP2C19; assay: Enzyme kinetics of hydroxylated metabolites formation; format: in vitro ADME; set-up: purchased CYPEX CYP008; host or cells: Escherichia coli; settings: CYP2C19, formation of cis‐4‐OH‐PZQ
Procedure: as §1, §2

Chain of CYP2D6 (Homo sapiens, UniProt P10635) (P10635 whole entry): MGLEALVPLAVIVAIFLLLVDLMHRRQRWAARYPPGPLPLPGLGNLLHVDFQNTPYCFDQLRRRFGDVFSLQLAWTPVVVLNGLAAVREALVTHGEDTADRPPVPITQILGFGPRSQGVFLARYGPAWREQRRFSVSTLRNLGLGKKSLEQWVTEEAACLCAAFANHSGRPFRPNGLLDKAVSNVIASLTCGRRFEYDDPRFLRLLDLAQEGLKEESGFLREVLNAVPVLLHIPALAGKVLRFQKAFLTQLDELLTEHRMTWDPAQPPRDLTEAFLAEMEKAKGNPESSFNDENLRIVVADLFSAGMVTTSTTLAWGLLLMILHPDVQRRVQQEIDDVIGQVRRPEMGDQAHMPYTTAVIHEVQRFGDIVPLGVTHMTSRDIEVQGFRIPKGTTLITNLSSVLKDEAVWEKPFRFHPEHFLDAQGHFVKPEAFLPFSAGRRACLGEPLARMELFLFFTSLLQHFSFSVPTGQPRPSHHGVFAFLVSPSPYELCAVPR

SMILES	Predicted CLH (CYP2D6 [1]) [mL/min/kg]	Predicted CLuH,int (CYP2D6 [1]) [mL/min/kg]	K M [SD] (HLM; formation of X‐OH‐PZQ)	V max [SD] (HLM; formation of X‐OH‐PZQ)	K M [SD] (HLM; formation of cis‐4‐OH‐PZQ)	V max [SD] (HLM; formation of cis‐4‐OH‐PZQ)	CLuH,int (CYP1A2 [2])	Depletion of substrate by CYP2C19 (CYP2C19 [3])	Contribution of CYP2D6 (CYP2D6 [4]) [%]	Predicted CLH (CYP1A2 [5]) [mL/min/kg]	Predicted CLuH,int (CYP1A2 [5]) [mL/min/kg]	Clearance class, CYP1A2‐mediated (CYP1A2 [5]; substrate depletion)	Clearance by CYP1A2, R‐PZQ compared to S‐PZQ (CYP1A2 [5]; substrate depletion, times faster) [times]	Fraction unbound in plasma (fu) [6]	half-life at 1 µmol/L (CYP1A2 [7]) [min]	Contribution of CYP2C19 (CYP2C19 [8]) [%]	Predicted CLH (CYP2C19 [9]) [mL/min/kg]	Predicted CLuH,int (CYP2C19 [9]) [mL/min/kg]	half-life at 1 µmol/L (CYP2C19 [10]) [min]	CLuH,int (CYP2C19 [11])
O=C(C1CCCCC1)N1CC(=O)N2CCc3ccccc3[C@@H]2C1 [R‐PZQ, R‐Praziquantel]	0.2132	0.860	29.30 [4.020] µmol/L	1.2 nmol/min/mg protein and 1.200 [0.06266] nmol/min/mg protein	38.90 [5.469] µmol/L	0.7572 [0.0447] nmol/min/mg protein	7.55 mL/min/kg and 7.550 mL/min/kg	complete depletion	51	5.071	27.80	high	2	0.2	7.54	64	3.904	19.73	3.6	4.60 mL/min/kg and 4.600 mL/min/kg
O=C(C1CCCCC1)N1CC(=O)N2CCc3ccccc3[C@H]2C1 [S‐PZQ, S‐Praziquantel]	0.1712	0.660	61.00 [22.12] µmol/L	6.3 nmol/min/mg protein and 6.300 [1.102] nmol/min/mg protein	44.30 [12.06] µmol/L	0.2700 [0.02999] nmol/min/mg protein	0.83 mL/min/kg and 0.8300 mL/min/kg	complete depletion	54	2.877	13.07			0.2	16	117	5.600	30.71	4.13	2.44 mL/min/kg and 2.440 mL/min/kg
